Test results as given in patent publication US10874743B2, “IRAK degraders and uses thereof” (Kymera Therapeutics, Inc., priority 2017, dated 2020).

Molecular target: T1, IRAK4 (Homo sapiens, UniProt Q9NWZ3)
T1 sequence (Q9NWZ3 1-460): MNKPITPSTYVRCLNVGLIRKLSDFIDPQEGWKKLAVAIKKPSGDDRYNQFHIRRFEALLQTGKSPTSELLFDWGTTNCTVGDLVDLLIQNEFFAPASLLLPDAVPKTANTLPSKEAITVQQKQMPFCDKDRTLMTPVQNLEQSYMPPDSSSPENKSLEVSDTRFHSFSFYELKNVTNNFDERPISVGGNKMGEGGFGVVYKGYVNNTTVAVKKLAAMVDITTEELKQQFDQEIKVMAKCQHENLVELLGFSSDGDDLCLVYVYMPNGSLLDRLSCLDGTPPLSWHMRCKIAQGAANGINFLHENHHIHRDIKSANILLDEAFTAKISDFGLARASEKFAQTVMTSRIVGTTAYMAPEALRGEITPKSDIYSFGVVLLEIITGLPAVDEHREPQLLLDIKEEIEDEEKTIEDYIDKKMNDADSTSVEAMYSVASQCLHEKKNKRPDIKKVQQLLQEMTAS
Experiment: OCI-LY-10 degradation assay (western blot, % IRAK4 degraded after 4 hours)
Assay type: cell-based
Set-up: endogenous in cells; host or cells: OCI-LY10
Settings: OCI-LY10 cells; for OCI-LY10 % IRAK4 Degradation: IRAK4 degraded after 4 hours, western blot; for OCI-LY10 % IRAK4 Degradation (0.01 uM) / OCI-LY10 % IRAK4 Degradation (0.1 uM) / OCI-LY10 % IRAK4 Degradation (1 uM): 4 hours; for OCI-LY10 % IRAK4 Degradation (0.01 uM): 0.01 uM compound; for OCI-LY10 % IRAK4 Degradation (0.1 uM): 0.1 uM compound; for OCI-LY10 % IRAK4 Degradation (1 uM): 1 uM compound
Procedure, shortened: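 OCI-LY10 cells (RPMI-1640, 20% FBS, 55 μM 2-ME) treated with compound at 0.003-10 μM final for 4 h at 37° C, then lysed in RIPA buffer. IRAK4 level read by fluorescent western blot (20-25 μg protein) and binned as % degraded: A >50%, B >20-50%, C <20%.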

SMILES	OCI-LY10 % IRAK4 Degradation	OCI-LY10 % IRAK4 Degradation (0.01 uM)	OCI-LY10 % IRAK4 Degradation (0.1 uM)	OCI-LY10 % IRAK4 Degradation (1 uM)
CC(C)(OCCOCCOCCOCCOCCNc1cccc2c1C(=O)N(C1CCC(=O)NC1=O)C2=O)C(F)CNC(=O)c1cnc(Nc2ccc3cnccc3n2)cc1NC1CC1 (centres unmarked) [I-64]	C (<20% degradation)	–	–	–
CC(C)(OCCOCCOCCNc1cccc2c1C(=O)N(C1CCC(=O)NC1=O)C2=O)C(F)CNC(=O)c1cnc(Nc2ccc3ncsc3c2)cc1NC1CC1 (centres unmarked) [I-65]	C (<20% degradation)	–	–	–
N#Cc1cnc2c(cnn2-c2cc(NC3CC3)c(-c3cn(CCOCCOCCOCCNc4cccc5c4C(=O)N(C4CCC(=O)NC4=O)C5=O)nn3)cn2)c1 (centres unmarked) [I-175, 1-[4-(cyclopropylamino)-5-[1-[2-[2-[2-[2-[[2-(2,6-dioxo-3-piperidyl)-1,3-dioxo-isoindolin-4-yl]amino]ethoxy]ethoxy]ethoxy]ethyl]triazol-4-yl]-2-pyridyl]pyrazolo[3,4-b]pyridine-5-carbonitrile]	C (<20% degradation)	–	–	–
NC(=O)[C@@H](O)C[C@H]1CCc2sc3ncnc(O[C@H]4CC[C@H](N5CCN(CCOCCNc6cccc7c6C(=O)N(C6CCC(=O)NC6=O)C7=O)CC5)CC4)c3c21 (stereo partly drawn) [I-184, T(2R)-3-[(8R)-1-[4-[4-[2-[2-[[2-(2,6-dioxo-3-piperidyl)-1,3-dioxo-isoindolin-4-yl]amino]V ethoxy]ethyl]piperazin-1-yl]cyclohexoxy]-7,8-dihydro-6H-cyclopenta[4,5]thieno[1,2-c]pyrimidin-8-yl]-2-hydroxy-propanamide]	C (<20% degradation)	–	–	–
CC(C)(OCCOCCOCCNc1cccc2c1C(=O)N(C1CCC(=O)NC1=O)C2=O)C(F)CNC(=O)c1cnc(-n2ncc3cc(C#N)cnc32)cc1NC1CC1 (centres unmarked) [I-59]	C (<20% degradation)	–	–	–
N#Cc1cnc2c(cnn2-c2cc(NC3CC3)c(C(=O)NCC(F)COCCNCCOCCNc3cccc4c3C(=O)N(C3CCC(=O)NC3=O)C4=O)cn2)c1 (centres unmarked) [I-94, 6-(5-Cyano-1H-pyrazolo[3,4-b]pyridin-1-yl)-4-(cyclopropylamino)-N-(3-(2-((2-(2-((2-(2,6-dioxopiperidin-3-yl)-1,3-dioxoisoindolin-4-yl)amino)ethoxy)ethyl)amino)ethoxy)-2-fluoropropyl)nicotinamide]	B (>20-50% degradation)	–	–	–
CC(OCCOCCNc1cccc2c1C(=O)N(C1CCC(=O)NC1=O)C2=O)C(F)CNC(=O)c1cnc(-n2ncc3cc(C#N)cnc32)cc1NC1CC1 (centres unmarked) [I-85]	C (<20% degradation)	–	–	–
NC(=O)[C@@H](O)C[C@H]1CCc2sc3ncnc(O[C@H]4CC[C@H](N5CCN(CCOCCOCCNc6cccc7c6C(=O)N(C6CCC(=O)NC6=O)C7=O)CC5)CC4)c3c21 (stereo partly drawn) [I-90, (2S)-3-[(8R)-1-[4-[4-[2-[2-[2-[[2-(2,6-dioxo-3-piperidyl)-1,3-dioxo-isoindolin-4-yl]amino]ethoxy]ethoxy]ethyl]piperazin-1-yl]cyclohexoxy]-7,8-dihydro-6H-cyclopenta[4,5]thieno[1,2-c]pyrimidin-8-yl]-2-hydroxy-propanamide]	B (>20-50% degradation)	–	–	–
CC(C)(OCCOCCNCCOCCNc1cccc2c1C(=O)N(C1CCC(=O)NC1=O)C2=O)C(F)CNC(=O)c1cnc(-n2ncc3cc(C#N)cnc32)cc1NC1CC1 (centres unmarked) [I-131]	C (<20% degradation)	–	–	–
NC(=O)[C@@H](O)C[C@H]1CCc2sc3ncnc(OC4CCC(N5CCN(C(=O)COCCOCCNc6cccc7c6C(=O)N(C6CCC(=O)NC6=O)C7=O)CC5)CC4)c3c21 (stereo partly drawn) [I-160, (2S)-3-[(8R)-1-[4-[4-[2-[2-[2-[[2-(2,6-dioxo-3-piperidyl)-1,3-dioxo-isoindolin-4-yl]amino]ethoxy]ethoxy]acetyl]piperazin-1-yl]cyclohexoxyl-7,8-dihydro-6H-cyclopenta[4,5]thieno 1,2-c]pyrimidin-8-yl]-2-hydroxy-propanamide]	C (<20% degradation)	–	–	–
N#Cc1cnc2c(cnn2-c2cc(NC3CC3)c(C(=O)NCC(F)COCCOCCOCCOCCOCCNc3cccc4c3C(=O)N(C3CCC(=O)NC3=O)C4=O)cn2)c1 (centres unmarked) [I-57]	C (<20% degradation)	–	–	–
N#Cc1cnc2c(cnn2-c2cc(NC3CC3)c(C(=O)N[C@H]3CC[C@H](C(=O)NCCOCCOCCOCCNC(=O)COc4cccc5c4C(=O)N(C4CCC(=O)NC4=O)C5=O)CC3)cn2)c1 (some centres unmarked) [I-17]	C (<20% degradation)	–	–	–

More lines, now with the values ahead:

OCI-LY10 % IRAK4 Degradation	OCI-LY10 % IRAK4 Degradation (0.01 uM)	OCI-LY10 % IRAK4 Degradation (0.1 uM)	OCI-LY10 % IRAK4 Degradation (1 uM)	SMILES
–	C (<20% degradation)	C (<20% degradation)	C (<20% degradation)	O=C1CCC(N2C(=O)c3cccc(NCCOCCN4CCO[C@@H](CNC(=O)c5ccc(-n6cc(NC(=O)c7coc(-c8ccnc(NCC(F)(F)F)c8)n7)c(C(F)F)n6)cc5)C4)c3C2=O)C(=O)N1 (some centres unmarked) [I-282]
–	B (>20-50% degradation)	B (>20-50% degradation)	B (>20-50% degradation)	O=C1CCC(N2C(=O)c3ccc(CCCNCc4ccc(-n5cc(NC(=O)c6coc(-c7ccnc(NCC(F)(F)F)c7)n6)c(C(F)F)n5)cc4)cc3C2=O)C(=O)N1 (centres unmarked) [I-375]
–	C (<20% degradation)	C (<20% degradation)	C (<20% degradation)	NC(=O)c1nn(CCOCCOCCOCCNc2cccc3c2C(=O)N(C2CCC(=O)NC2=O)C3=O)cc1NC(=O)c1coc(-c2ccnc(NCC3CC3)c2)n1 (centres unmarked) [I-239]
–	C (<20% degradation)	A (>50% degradation)	A (>50% degradation)	Cn1c(=O)n(C2CCC(=O)NC2=O)c2cccc(CCCOCCOCCNC(=O)c3ccc(-n4cc(NC(=O)c5coc(-c6ccnc(NCC(F)(F)F)c6)n5)c(C(N)=O)n4)cc3)c21 (centres unmarked) [I-249]
C (<20% degradation)	–	–	–	Cc1ncsc1-c1ccc(CNC(=O)[C@@H]2C[C@@H](O)CN2C(=O)[C@@H](NCCCCCOCCOCCCCCNC(=O)c2ccc(-n3cc(NC(=O)c4coc(-c5ccnc(NCC(F)(F)F)c5)n4)c(C(N)=O)n3)cc2)C(C)(C)C)cc1 [I-188, N-(3-carbamoyl-1-(4-((5-(2-((5-(((S)-1-((2S,4R)-4-hydroxy-2-((4-(4-methylthiazol-5-yl)benzyl)carbamoyl)pyrrolidin-1-yl)-3,3-dimethyl-1-oxobutan-2-yl)amino)pentyl)oxy)ethoxy)pentyl)carbamoyl)phenyl)-1H-pyrazol-4-yl)-2-(2-((2,2,2-trifluoroethyl)amino)pyridin-4-yl)oxazole-4-carboxamide]
–	B (>20-50% degradation)	C (<20% degradation)	C (<20% degradation)	NC(=O)c1nn(CCNCCOCCOCCNc2cccc3c2C(=O)N(C2CCC(=O)NC2=O)C3=O)cc1NC(=O)c1coc(-c2ccnc(NCC3CC3)c2)n1 (centres unmarked) [I-326]
–	B (>20-50% degradation)	A (>50% degradation)	A (>50% degradation)	O=C1CCC(N2C(=O)c3cccc(NCCOCCN4CCO[C@H](CNCc5ccc(-n6cc(NC(=O)c7coc(-c8ccnc(NCC9CC9)c8)n7)c(C(F)F)n6)cc5)C4)c3C2=O)C(=O)N1 (some centres unmarked) [I-329]
–	C (<20% degradation)	C (<20% degradation)	C (<20% degradation)	Cn1cc(-c2nc(C(=O)Nc3cn(-c4ccc(CNCCOCCOCCNc5ccc6c(c5)C(=O)N(C5CCC(=O)NC5=O)C6=O)cc4)nc3C(F)F)co2)cn1 (centres unmarked) [I-353]
B (>20-50% degradation)	–	–	–	NC(=O)c1nn(C2CCC(C(=O)NCCOCCOCCNc3cccc4c3C(=O)N(C3CCC(=O)NC3=O)C4=O)CC2)cc1NC(=O)c1coc(-c2ccnc(NCC(F)(F)F)c2)n1 (centres unmarked) [I-139]
A (>50% degradation)	–	–	–	NC(=O)c1nn(-c2ccc(C(=O)NCCOCCOCCOCCOCC#Cc3ccc4c(c3)C(=O)N(C3CCC(=O)NC3=O)C4=O)cc2)cc1NC(=O)c1coc(-c2ccnc(NCC(F)(F)F)c2)n1 (centres unmarked) [I-149]
B (>20-50% degradation)	–	–	–	O=C1CCC(N2C(=O)c3ccc(CCCOCCOCCNCc4ccc(-n5cc(NC(=O)c6coc(-c7ccnc(NCC8CC8)c7)n6)c(C(F)(F)F)n5)cc4)cc3C2=O)C(=O)N1 (centres unmarked) [I-187, 2-[2-(Cyclopropylmethylamino)-4-pyridyl]-N-[1-[4-[[2-[2-[3-[2-(2,6-dioxo-3-piperidyl)-1,3-dioxo-isoindolin-5-yl]propoxy]ethoxy]ethylamino]methyl]phenyl]-3-(trifluoromethyl)pyrazol-4-yl]oxazole-4-carboxamide]
–	C (<20% degradation)	C (<20% degradation)	B (>20-50% degradation)	CC(=O)O[C@@H]1C[C@@H](C(=O)NCc2ccc(-n3cc(NC(=O)c4coc(-c5ccnc(NCC6CC6)c5)n4)c(C(F)F)n3)cc2)N(C(=O)[C@@H](NC(=O)COCCOCCOCCNc2cccc3c2C(=O)N(C2CCC(=O)NC2=O)C3=O)C(C)(C)C)C1 (some centres unmarked) [I-285]
A (>50% degradation)	–	–	–	NC(=O)c1nn(-c2ccc(C(=O)NCCOCCOCCNc3cccc4c3C(=O)N(C3CCC(=O)NC3=O)C4=O)cc2)cc1NC(=O)c1coc(-c2ccnc(NCC3CC3)c2)n1 (centres unmarked) [I-138]
